{"source": "PubChem BioAssay AID1259407", "about": "(Chemical Carcinogenesis Research Information System (CCRIS), 2018)", "tested_on": "CCRIS mutagenicity, Ames/micronucleus/aberration tests", "assay": "CCRIS mutagenicity studies", "key": {"[1]": {"settings": "Test System: AMES SALMONELLA TYPHIMURIUM, Strain/Indicator: TA100, Metabolic Activation: NONE, Method: PREINCUBATION"}, "[2]": {"settings": "Test System: AMES SALMONELLA TYPHIMURIUM, Strain/Indicator: TA100, Metabolic Activation: NONE, Method: STANDARD PLATE"}}, "note": "Calls of active or inactive are those of the source. The rule behind the calls is not given here."}
{"molecule": "NCCc1c[nH]c2ccccc12", "values": [{"measurement": "mutagenic call", "setting": "Test System: AMES SALMONELLA TYPHIMURIUM, Strain/Indicator: TA97A, Metabolic Activation: NONE, Method: STANDARD PLATE", "value": "inactive; negative"}, {"measurement": "mutagenic call", "setting": "Test System: AMES SALMONELLA TYPHIMURIUM, Strain/Indicator: TA97A, Metabolic Activation: RAT LIVER S-9, PHENOBARBITOL/BETA-NAPHTHOFLAVONE, Method: STANDARD PLATE", "value": "inactive; negative"}, {"measurement": "mutagenic call", "setting": "Test System: AMES SALMONELLA TYPHIMURIUM, Strain/Indicator: TA98, Metabolic Activation: NONE, Method: STANDARD PLATE", "value": "inactive; negative"}, {"measurement": "mutagenic call", "setting": "Test System: AMES SALMONELLA TYPHIMURIUM, Strain/Indicator: TA98, Metabolic Activation: RAT LIVER S-9, PHENOBARBITOL/BETA-NAPHTHOFLAVONE, Method: STANDARD PLATE", "value": "inactive; negative"}, {"measurement": "mutagenic call", "setting": "[1]", "value": "inactive; negative"}, {"measurement": "mutagenic call", "setting": "[2]", "value": "inactive; negative"}, {"measurement": "mutagenic call", "setting": "Test System: AMES SALMONELLA TYPHIMURIUM, Strain/Indicator: TA100, Metabolic Activation: RAT LIVER S-9, PHENOBARBITOL/BETA-NAPHTHOFLAVONE, Method: STANDARD PLATE", "value": "inactive; negative"}, {"measurement": "mutagenic call", "setting": "Test System: AMES SALMONELLA TYPHIMURIUM, Strain/Indicator: TA1535, Metabolic Activation: NONE, Method: STANDARD PLATE", "value": "inactive; negative"}, {"measurement": "mutagenic call", "setting": "Test System: AMES SALMONELLA TYPHIMURIUM, Strain/Indicator: TA1535, Metabolic Activation: RAT LIVER S-9, PHENOBARBITOL/BETA-NAPHTHOFLAVONE, Method: STANDARD PLATE", "value": "inactive; negative"}, {"measurement": "mutagenic call", "setting": "Test System: E.COLI, Strain/Indicator: WP2/UVRA, Metabolic Activation: NONE, Method: STANDARD PLATE", "value": "inactive; negative"}, {"measurement": "mutagenic call", "setting": "Test System: E.COLI, Strain/Indicator: WP2/UVRA, Metabolic Activation: RAT LIVER S-9, PHENOBARBITOL/BETA-NAPHTHOFLAVONE, Method: STANDARD PLATE", "value": "inactive; negative"}]}
{"molecule": "CCOC(=O)[C@H](CCc1ccccc1)N[C@@H](C)C(=O)N(CC(=O)O)C1Cc2ccccc2C1", "values": [{"measurement": "mutagenic call", "setting": "Test System: AMES SALMONELLA TYPHIMURIUM, Strain/Indicator: TA98, Metabolic Activation: NONE", "value": "inactive; negative"}, {"measurement": "mutagenic call", "setting": "Test System: AMES SALMONELLA TYPHIMURIUM, Strain/Indicator: TA98, Metabolic Activation: S-9", "value": "inactive; negative"}, {"measurement": "mutagenic call", "setting": "Test System: AMES SALMONELLA TYPHIMURIUM, Strain/Indicator: TA100, Metabolic Activation: NONE", "value": "inactive; negative"}, {"measurement": "mutagenic call", "setting": "Test System: AMES SALMONELLA TYPHIMURIUM, Strain/Indicator: TA100, Metabolic Activation: S-9", "value": "inactive; negative"}, {"measurement": "mutagenic call", "setting": "Test System: AMES SALMONELLA TYPHIMURIUM, Strain/Indicator: TA1535, Metabolic Activation: NONE", "value": "inactive; negative"}, {"measurement": "mutagenic call", "setting": "Test System: AMES SALMONELLA TYPHIMURIUM, Strain/Indicator: TA1535, Metabolic Activation: S-9", "value": "inactive; negative"}, {"measurement": "mutagenic call", "setting": "Test System: AMES SALMONELLA TYPHIMURIUM, Strain/Indicator: TA1537, Metabolic Activation: NONE", "value": "inactive; negative"}, {"measurement": "mutagenic call", "setting": "Test System: AMES SALMONELLA TYPHIMURIUM, Strain/Indicator: TA1537, Metabolic Activation: S-9", "value": "inactive; negative"}, {"measurement": "mutagenic call", "setting": "Test System: E. COLI, Strain/Indicator: WP2 UVRA, Metabolic Activation: NONE", "value": "inactive; negative"}, {"measurement": "mutagenic call", "setting": "Test System: E. COLI, Strain/Indicator: WP2 UVRA, Metabolic Activation: S-9", "value": "inactive; negative"}]}
{"molecule": "COc1ccc(CCC(=O)c2c(O)cc(O[C@@H]3O[C@H](CO)[C@@H](O)[C@H](O)[C@H]3O[C@@H]3O[C@@H](C)[C@H](O)[C@@H](O)[C@H]3O)cc2O)cc1O", "values": [{"measurement": "mutagenic call", "setting": "Test System: AMES SALMONELLA TYPHIMURIUM, Strain/Indicator: TA97, Metabolic Activation: HAMSTER, LIVER, S-9, AROCLOR 1254 (10 OR 30%), Method: PREINCUBATION", "value": "inactive; negative"}, {"measurement": "mutagenic call", "setting": "Test System: AMES SALMONELLA TYPHIMURIUM, Strain/Indicator: TA97, Metabolic Activation: NONE, Method: PREINCUBATION", "value": "inactive; negative"}, {"measurement": "mutagenic call", "setting": "Test System: AMES SALMONELLA TYPHIMURIUM, Strain/Indicator: TA97, Metabolic Activation: RAT, LIVER, S-9, AROCLOR 1254 (10 OR 30%), Method: PREINCUBATION", "value": "inactive; negative"}, {"measurement": "mutagenic call", "setting": "Test System: AMES SALMONELLA TYPHIMURIUM, Strain/Indicator: TA98, Metabolic Activation: HAMSTER, LIVER, S-9, AROCLOR 1254 (10 OR 30%), Method: PREINCUBATION", "value": "inactive; negative"}, {"measurement": "mutagenic call", "setting": "Test System: AMES SALMONELLA TYPHIMURIUM, Strain/Indicator: TA98, Metabolic Activation: NONE, Method: PREINCUBATION", "value": "inactive; negative"}, {"measurement": "mutagenic call", "setting": "Test System: AMES SALMONELLA TYPHIMURIUM, Strain/Indicator: TA98, Metabolic Activation: RAT, LIVER, S-9, AROCLOR 1254 (10 OR 30%), Method: PREINCUBATION", "value": "inactive; negative"}, {"measurement": "mutagenic call", "setting": "Test System: AMES SALMONELLA TYPHIMURIUM, Strain/Indicator: TA100, Metabolic Activation: HAMSTER, LIVER, S-9, AROCLOR 1254 (10 OR 30%), Method: PREINCUBATION", "value": "inactive; negative"}, {"measurement": "mutagenic call", "setting": "[1]", "value": "inactive; negative"}, {"measurement": "mutagenic call", "setting": "Test System: AMES SALMONELLA TYPHIMURIUM, Strain/Indicator: TA100, Metabolic Activation: RAT, LIVER, S-9, AROCLOR 1254 (10 OR 30%), Method: PREINCUBATION", "value": "inactive; negative"}, {"measurement": "mutagenic call", "setting": "Test System: AMES SALMONELLA TYPHIMURIUM, Strain/Indicator: TA1535, Metabolic Activation: HAMSTER, LIVER, S-9, AROCLOR 1254 (10 OR 30%), Method: PREINCUBATION", "value": "inactive; negative"}, {"measurement": "mutagenic call", "setting": "Test System: AMES SALMONELLA TYPHIMURIUM, Strain/Indicator: TA1535, Metabolic Activation: NONE, Method: PREINCUBATION", "value": "inactive; negative"}, {"measurement": "mutagenic call", "setting": "Test System: AMES SALMONELLA TYPHIMURIUM, Strain/Indicator: TA1535, Metabolic Activation: RAT, LIVER, S-9, AROCLOR 1254 (10 OR 30%), Method: PREINCUBATION", "value": "inactive; negative"}]}
{"molecule": "COc1ccnc(=O)[nH]1", "values": [{"measurement": "mutagenic call", "setting": "[2]", "value": "active; positive"}]}
{"molecule": "Oc1c(Cl)cccc1Cl", "values": [{"measurement": "mutagenic call", "setting": "Test System: CHINESE HAMSTER V-79, Strain/Indicator: V-79/6-THIOGUANINE, Metabolic Activation: CELL-MEDIATED, Method: STANDARD PLATE", "value": "inactive; negative"}, {"measurement": "mutagenic call", "setting": "Test System: CHINESE HAMSTER V-79, Strain/Indicator: V-79/6-THIOGUANINE, Metabolic Activation: NONE, Method: STANDARD PLATE", "value": "inactive; negative"}, {"measurement": "mutagenic call", "setting": "Test System: CHINESE HAMSTER V-79, Strain/Indicator: V-79/6-THIOGUANINE, Metabolic Activation: PRIMARY RAT HEPATOCYTES, Method: STANDARD PLATE", "value": "inactive; negative"}]}
